The source of these data is patent US4892813A, “Method for the determination of the enzymatic activity of convertase” (Centre National de la Recherche Scientifique, priority 1987, dated 1990).

Format in all cases: biochemical, rat
For one experiment, the system named is undesirable activity. The experiment in a line: Conversion of iodine-125-labeled peptide I by brain extracts, undesirable activity (% of Asn-^125 I-Tyr(NH2) generated). The conditions noted are these: molecular sieve fraction, peptide I (20,000 cpm), 2 hours, % of starting materials. Here is the method:
(§1) Male Wistar rats (100-120 g) were sacrificed by quick decapitation and the cerebral cortex was removed immediately. The fresh dissected tissue was homogenized in a Potter Elvehjem apparatus in a buffer solution of phosphate (pH 7.4) at a concentration of 50 mM and potassium chloride at a concentration of 200 mM (5 ml of buffer per cortex).
(§2) The extract was then centrifuged at 3000×g for 15 minutes and the supernatant was filtered on a Sephadex G-150 column in 0.25M Tris-HCl (pH 7).
(§3) The proteolytic activities were tested in the following way. The peptide I labeled with iodine 125 (20,000 cpm), dissolved in 10 μl of 250 mM Tris-HCl (pH 7), was incubated at 37° C. with an aliquot either of crude extract of rat cerebral cortex or of fractions derived from gel filtration or derived from ion exchange chromatography (final volume of 300 μl in 0.25M Tris-HCl (pH 7)).
(§4) 50 μl samples of the mixture were taken at different times during the reaction and the reaction was stopped by the addition of 600 μl of CM-52 resin in 30 mM ammonium acetate (pH 6) (1:10, vol./vol.). The mixture was then centrifuged at 10,000×g for 30 seconds on a Beckman microcentrifuge. […] After the second washing by elution at each of its saline concentrations, the iodinated products retained on the resin were counted.
(§5) The results were calculated as follows: [formula] where the specific activity represents the percentage of peptides II generated, the undesirable activity represents the percentage of Asn-^125 I-Tyr(NH2) generated, t is the total cpm in 50 μl of the mixture, x1 is the cpm found after washing with the 30 mM ammonium acetate, x2 is the cpm found after washing with the 100 mM ammonium acetate, and y1 and y2 are the cpm values found respectively after the 30 mM and 100 mM washings of the resin with the peptide I by itself.
(§6) The extracts were obtained from three regions of the brain and were fractionated by filtration on a molecular sieve. A 50 μl aliquot corresponding to an activity peak was incubated with the peptide I (20,000 cpm) for 2 hours and the products were analyzed by ion exchange.

Experiment [1] concerns somatostatin convertase. Put plainly: Conversion of iodine-125-labeled peptide I by brain extracts, specific activity (% of peptide II generated). The note with it: molecular sieve fraction, peptide I (20,000 cpm), 2 hours, % of starting materials. The protocol:
as §1, §2, §3, §4, §5, §6

For experiment [2], the system named is somatostatin convertase. The experiment in a line: Competition of peptides with iodinated peptide I in the enzymatic conversion by somatostatin convertase. The conditions noted are these: 1 μl of each peptide or 2 μg of somatostatin 28; ^125 I peptide I (30,000 cpm), pH 7, 37° C., 2 hours; 0% = maximum conversion of peptide I to peptide II. Here is the method:
The ability of several analogous peptides to compete with the peptide I in the enzymatic conversion was evaluated by means of competition experiments. The results given in the table which follows indicate that either the peptide of 28 AA (S-28) or the noniodinated substrate of II AA (deiodinated peptide I) competed effectively (75% and 85% respectively) with the iodinated peptide I. It is interesting to observe that simple replacement of Lys with Arg in the dibasic doublet (cleavage site) produced a peptide III, which competed with the iodinated substrate (peptide I) with an efficacy of only 30%.
The enzyme prepared from the Sephadex G150 column was incubated in a
mixture containing either 1 μl of each of the peptides described above
or 2 μg of somatostatin 28 and ^125 IPeptide I (30,000 cpm) in a
buffer solution of TrisHCl (pH 7) at 37° C. for 2 hours. 0%
inhibition corresponds to a maximum conversion of the peptide I to the […]

Where no end group is shown, it is not given here.

Consider Asn-^125 I-Tyr(NH2), for which the figures for the “% of products generated, Asn-^125 I-Tyr(NH2)” value with undesirable activity (Hypothalamus extract), in the experiment on undesirable activity (Neocortex extract) and in the experiment on undesirable activity (Pituitary gland extract) were 90%, 40% and 37%, respectively.
Take “Ala-Gly-Ala-Lys-Asn-Tyr(NH2)* [Peptide II]”: the “% of products generated, Peptide II labeled with 125I” value in the experiment on somatostatin convertase [1] (Hypothalamus extract) turned out to be 7%; with somatostatin convertase [1] (Neocortex extract) it was 18%; in the experiment with somatostatin convertase [1] (Pituitary gland extract) it was 20%.
As for PRERKAGAKNY-NH2 [De^125 IPeptide I], the “% inhibition of the conversion activity (competition with iodinated peptide I)” value in the experiment on somatostatin convertase [2] came to 85%.
On the same count and under the same terms, with “Somatostatin 28: direct precursor of somato 14, a peptide consisting of 28 AA [reference compound]” the figure was 75%.
